Data reported in patent US20090274698A1, “Combination anti-cancer therapy” (priority 2007, published 2009).

Assays:
pAkt = assay: Western blot of pAkt in a panel of cell lines from various tumor types; type: cell-based, human
Protocol: (§1) Cell extracts were prepared by detergent lysis (50 mM Tris-HCl, pH 8.0, 150 mM NaCl, 1% NP-40, 0.5% sodium deoxycholate, 0.1% SDS, containing protease inhibitor (P8340, Sigma, St. Louis, Mo.) and phosphatase inhibitor (P5726, Sigma, St. Louis, Mo.) cocktails. The soluble protein concentration was determined by micro-BSA assay (Pierce, Rockford Ill.). Protein immunodetection was performed by electrophoretic transfer of SDS-PAGE separated proteins to nitrocellulose, incubation with antibody, and chemiluminescent second step detection (PicoWest; Pierce, Rockford, Ill.). The antibodies included: phospho-Akt(473), phospho-Akt(308), and total Akt. All antibodies were obtained from Cell Signaling Technology, Inc. (Danvers, Mass.). For analysis of an agent's effect on the phosphorylation of downstream signaling proteins, cell lines were grown to approximately 70% confluency, at which time the indicated agent was added at the indicated concentration, and cells were incubated at 37° C. for 24 hours. The media was removed, cells were washed two times with PBS, and cells were lysed as previously described.

tumor cell lines = assay: Anti-proliferative activity across tumor cell lines (statement of the description); type: cell-based
[1] = test system: pAkt (serine 473) in ovarian tumor cells; assay: Western blot of pAkt (serine 473) in ovarian cell lines, gemcitabine study (FIG. 11A); type: cell-based, human; details: gemcitabine 1 μM, Compound B 10 μM, rapamycin 10 nM, 24 hours
Protocol: as §1

[2] = test system: pAkt (Ser 473) in Ovcar3 cells; assay: Western blot of pAkt (Ser 473) in Ovcar3 cells (FIG. 9, 10); type: cell-based, human; details: Ovcar3, 24 hours; 10 nM rapamycin, 10 μM irinotecan
Text: FIG. 9. Compound B inhibits irinotecan-induced Akt phosphorylation and enhances irinotecan-induced apoptosis in ovarian tumor cells. […] Phospho-Akt was detected using an antoibody specific to Serine 473. […] Apoptosis is expressed as the fold increase in induction relative to DMSO-treated cells.
FIG. 10. Compound B inhibits doxorubicin-induced Akt phosphorylation and enhances doxorubicin-induced apoptosis in ovarian tumor cells. […] Phospho-Akt was detected using an antibody specific to Serine 473. […] Apoptosis is expressed as the fold increase in induction relative to DMSO-treated cells.

MDA-MB-231 cells = assay: Apoptosis (Caspase 3/7 Glo) in MDA-MB-231 cells; type: cell-based, human; details: MDA-MB-231, 24 hours, Caspase 3/7 activity
Protocol: Apoptosis was measured 24 hrs after treatment. […] Measurements were made 24 hours after treatments, and apoptosis was evaluated by fold induction in Caspase 3/7 activity.

[3] = test system: pAkt (Ser 473) in MDA-MB-231 tumor cells; assay: Western blot of pAkt (Ser 473) in MDA-MB-231 tumor cells; details: MDA-MB-231, 24 hours
Protocol: Cells were treated for 24 hours prior to harvesting lysates. Ctrl=control.
as §1

[4] = test system: pAkt-S473 in ovarian carcinoma cell lines (Ovcar3, SKov3, MDAH 2774, CaOV3); assay: Western blot of phospho-Akt(S473) in ovarian carcinoma cell lines, cisplatin study (FIG. 8); details: 10 nM rapamycin, 20 μM Compound A, 30 μM cisplatin, 24 hours
Protocol: Band density was determined and relative levels of phospho-Akt(S473) are expressed graphically relative to DMSO-treated control lysate. Four ovarian cell lines were assayed (A) Ovcar3, (B) SKov3, (C) MDAH 2774, (D) CaOV3.
as §1

CO[C@H]1C[C@@H]2CC[C@@H](C)[C@@](O)(O2)C(=O)C(=O)N2CCCC[C@H]2C(=O)O[C@H]([C@H](C)C[C@@H]2CC[C@@H](O)[C@H](OC)C2)CC(=O)[C@H](C)/C=C(\C)[C@@H](O)[C@@H](OC)C(=O)[C@H](C)C[C@H](C)/C=C/C=C/C=C/1C [Rapamycin]
tumor cells tested in which pAKT is induced (pAkt; Table 2): ~62% | cancer cell lines in which pAkt (S473) is inhibited (pAkt; statement of the description): ~20% | cell lines in which treatment increases pAkt (S473) (pAkt; statement of the description): ~65% | cell lines in a given tumor type that are insensitive (anti-proliferative activity) (tumor cell lines): approximately 50%

Nc1ccn([C@@H]2O[C@H](CO)[C@@H](O)C2(F)F)c(=O)n1 [gemcitabine]
effect on Akt phosphorylation (serine 473), single agent [1]: increased Akt phosphorylation on serine 473

CCc1c2c(nc3ccc(OC(=O)N4CCC(N5CCCCC5)CC4)cc13)-c1cc3c(c(=O)n1C2)COC(=O)[C@]3(O)CC [irinotecan]
effect on pAkt levels, single agent [2]: causes an induction in pAkt levels

COc1cccc2c1C(=O)c1c(O)c3c(c(O)c1C2=O)C[C@@](O)(C(=O)CO)C[C@@H]3O[C@H]1C[C@H](N)[C@H](O)[C@H](C)O1 [doxorubicin]
induction in apoptosis, single agent (MDA-MB-231 cells): no significant induction in apoptosis | effect on pAkt-S473, single agent [3]: promotes an increase in Akt phosphorylation

N.N.[Cl][Pt][Cl] [cisplatin]
effect on pAkt-S473, single agent [4]: promotes an increase in Akt phosphorylation
